The results in this text go back to PubChem BioAssay (NCI).

Common to all, as to test: growth of human tumour cells (NCI), 48 h
Experiment [1] has as its system LOX IMVI melanoma.
The test system of experiment [2] is COLO 205 colon.
Experiment [3] relates to HCC-2998 colon.
The test system of experiment [4] is NCI-H23 lung.
Experiment [5] has as its system SN12C renal.
Experiment [6] relates to MCF7 breast.
The test system of experiment [7] is SW-620 colon.
Experiment [8] concerns A549 NSCLC.
Experiment [9] has as its system DU-145 prostate.
Experiment [10] deals with T-47D breast.

“And” between values parts separate entries of the source, which are not always exact repeats. Equal entries are not always repeated.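 How tested: cells in 96-well plates exposed to compound for 48 hours at five concentrations. At the GI50, growth is halved. The concentration for full growth arrest is given as TGI.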 A value given as a limit tells only on which side of the number the result lay.

For the compound `COc1ccc(-c2nn(-c3cccc(NC(=O)c4ccc(N5CCOCC5)c(C(F)(F)F)c4)c3)cc2-c2ccncc2)cc1Cl`, the GI50 is 9.98 µM in experiment [1]; 4.25 µM in [2]; 14.1 µM in experiment [3]; 29.9 µM in experiment [4]; more than 50 µM in [5]; 3.11 µM in [6]. The GI50 was 21.3 µM in experiment [7], 6.52 µM in experiment [8], more than 50 µM in experiment [9] and 4.5 µM in experiment [10]. Moreover, the TGI in experiment [1], in experiment [2], in experiment [3], in experiment [4], in experiment [5] and in experiment [6] was more than 50 µM throughout. The TGI in experiment [7], in experiment [8], in experiment [9] and in experiment [10] was more than 50 µM in each case.

`COc1ccc(Nc2cc(C)nc(N3CCN(c4ccnc5cc(Cl)ccc45)CC3)n2)cc1`: the GI50 was 2.39 µM in [1]; 1.96 µM in experiment [2]; 3.24 µM in experiment [3]; 3.82 µM in experiment [4]; 2.8 µM in experiment [5]; 0.284 µM in experiment [6]. Further, the GI50 is 2.73 µM in [7], 2 µM in experiment [8], 6.57 µM in experiment [9] and 1.99 µM in [10]. Also, the TGI was 5.96 µM in experiment [1]; 3.96 µM in experiment [2]; 11.6 µM in experiment [3]; more than 100 µM in [4]; more than 100 µM in experiment [5]; 4.51 µM in [6]. For the same compound, the TGI in experiment [7] was 13.2 µM; in [8], more than 100 µM; in experiment [9], more than 100 µM; in experiment [10], 6.59 µM.

`C=CS(=O)(=O)CCN1CC1`: the TGI in experiment [1], in experiment [2], in experiment [3], in experiment [4], in experiment [5] and in [6] was more than 10 µM each time. In addition, the TGI in experiment [7], in experiment [8], in experiment [9] and in experiment [10] was more than 10 µM each time.

On to `COc1ccc2nc(NC(=O)c3cccnc3Nc3cc(OC)c(OC)c(OC)c3)sc2c1`, for which the GI50 in experiment [1] is 15.7 µM; in [2], 17.4 µM; in [3], 17 µM; in [4], 5.38 µM; in [5], 11.7 µM; in experiment [6] it was 0.515 µM. The GI50 in [7] was 11.8 µM; in [8], 7.38 µM; in experiment [9] it was 14.6 µM; in [10], 5.06 µM. Also, the TGI in experiment [1] was 42.2 µM; in experiment [2] it was 51.5 µM; in experiment [3], 39.4 µM; in experiment [4], 22.7 µM; in experiment [5], 27.5 µM; in [6] it was 13.6 µM. The TGI stood at 24.5 µM in experiment [7], 22 µM in [8], 33.8 µM in experiment [9] and 51.3 µM in experiment [10].

`O=C1OC(c2ccccc2)=N/C1=C\c1cccc(F)c1`: the TGI is 45.6 µM in [1]; more than 100 µM in [2]; more than 100 µM in [3]; more than 100 µM in [4]; more than 100 µM in [5]; more than 100 µM in experiment [6]. For the same compound, the TGI in experiment [7], in [8], in experiment [9] and in [10] was more than 100 µM in each case.

Consider `C=C1[C@@H]([C@@]2(C)C=CC(=O)C(C)(C)[C@@H]2CC(=O)OC)CC[C@@]2(C)C(c3ccoc3)OC(=O)[C@H]3O[C@]132` (stereo not given in full), for which the TGI in [1], in [2], in experiment [3], in [4], in experiment [5] and in experiment [6] was more than 100 µM in each case. In addition, the TGI in experiment [7], in experiment [8], in [9] and in [10] was more than 100 µM in each case.

As for `COc1ccc(OC)c(Nc2nc(-c3c(C)nc4sccn34)cs2)c1`, the GI50 was more than 100 µM in experiment [1]; more than 100 µM in experiment [2]; more than 100 µM in experiment [3]; 51.1 µM in [4]; more than 100 µM in [5]; 1.95 µM in experiment [6]. The GI50 in experiment [7] was more than 100 µM; in experiment [8], more than 100 µM; in [9], more than 100 µM; in experiment [10], 5.43 µM. Besides, the TGI in experiment [1], in [2], in experiment [3], in experiment [4], in experiment [5] and in experiment [6] was more than 100 µM in each case. In addition, the TGI in experiment [7], in experiment [8], in experiment [9] and in experiment [10] was more than 100 µM throughout.

For `OCCN1CCN(CC/C=C2\c3ccccc3Sc3ccc(Cl)cc32)CC1`, the GI50 in [1] is 1.96 µM and 1.65 µM; in experiment [2] it was 1.65 µM and 1.59 µM; in experiment [3], 1.99 µM and 1.68 µM; in experiment [4], 10.7 µM and 7.72 µM; in [5], 7.12 µM and 7.01 µM; in experiment [6], 1.52 µM and 2.21 µM. The GI50 in experiment [7] is 2.38 µM and 1.91 µM; in experiment [8] it was 4.79 µM and 4.13 µM; in experiment [9] it was 5.18 µM and 7.27 µM; in experiment [10], 2.9 µM and 2.79 µM. Also, the TGI is 3.89 µM and 3.13 µM in experiment [1]; 3.24 µM and 3 µM in experiment [2]; 3.8 µM and 3.16 µM in [3]; 28.2 µM and 21.4 µM in experiment [4]; 27.4 µM and 20.4 µM in experiment [5]; 3.34 µM and 5.45 µM in experiment [6]. For the same compound, the TGI in [7] was 5.48 µM and 4.01 µM; in [8] it was 22.9 µM and 14.3 µM; in [9], 17.4 µM and 19.7 µM; in [10], 10.4 µM and 11.5 µM.

For `CCc1nc(N)nc(N)c1-c1ccc(Cl)c(N=CN(C)C)c1`, the TGI in [1] was more than 100 µM; in experiment [2], more than 100 µM; in experiment [3] it was more than 100 µM; in experiment [4], more than 81.5 µM; in [5] it was more than 100 µM; in experiment [6] it was more than 100 µM. The TGI in experiment [7], in experiment [8], in experiment [9] and in [10] was more than 100 µM in each case.

Turning to `Cc1cc(OCc2nnc3n2N=C(c2ccc(Cl)cc2Cl)CS3)ccc1Cl`, the GI50 was 36.3 µM in experiment [1]; 60.2 µM in experiment [2]; 68.6 µM in [3]; 61 µM in experiment [4]; 38.7 µM in experiment [5]; 39.1 µM in experiment [6]. In addition, the GI50 in [7] was more than 100 µM; in experiment [8] it was 56.3 µM; in [9] it was 69.7 µM; in [10], 40.5 µM. For the same compound, the TGI in experiment [1], in experiment [2], in experiment [3], in [4], in [5] and in [6] was more than 100 µM each time. In addition, the TGI in experiment [7], in [8], in [9] and in experiment [10] was more than 100 µM throughout.

As to `Cn1cnc([N+](=O)[O-])c1Sc1ncn[nH]1`, the GI50 in experiment [1] is more than 100 µM; in experiment [2] it was 28.4 µM; in experiment [3], more than 100 µM; in experiment [4] it was 99.5 µM; in [5], more than 100 µM; in experiment [6], more than 100 µM. For the same compound, the GI50 in experiment [7] was 61.1 µM; in [8], more than 100 µM; in experiment [9], 63.4 µM; in experiment [10], 17 µM. Besides, the TGI in experiment [1], in [2], in experiment [3], in experiment [4], in experiment [5] and in [6] was more than 100 µM throughout. The TGI in [7], in experiment [8], in experiment [9] and in experiment [10] was more than 100 µM each time.

For `C/C=C(\C)C(=O)N[C@H]1C(O)C[C@]2(C)C3CC[C@@]4(C)C(CC[C@@H]4C(C)N(C)C)C3CCC2C1O` (stereo not given in full), the GI50 in [1] was 1.81 µM; in experiment [2], 1.74 µM; in experiment [3] it was 4.16 µM; in experiment [4], 13.1 µM; in experiment [5], 8.47 µM; in experiment [6], 2.89 µM. The GI50 is 2.31 µM in [7], 9.54 µM in [8], 12.6 µM in experiment [9] and 2.91 µM in [10]. In addition, the TGI is 4.7 µM in [1]; 3.48 µM in experiment [2]; 9.21 µM in experiment [3]; 49.7 µM in experiment [4]; 37.9 µM in [5]; 17.4 µM in experiment [6]. Besides, the TGI was 6.06 µM in experiment [7], 33.6 µM in [8], more than 83.3 µM in experiment [9] and 17.7 µM in experiment [10].
